Six compounds from patent US5208223A, “Phosphocholine derivative inhibitors of phospholipase A2” (American Cyanamid Company, priority 1992, dated 1993) can be followed below.

Common to all, as to format: biochemical
The target in experiment [1] is T1, porcine pancreatic PLA2 (Sus scrofa, UniProt P00592).
T1 construct: purchased Sigma
The experiment can be described thus: PLA2 assay: in vitro porcine pancreatic phospholipase A2, preincubation of drug+enzyme, substrate 2 nM. The conditions noted are these: preincubation, subs. con. 2; for IC50: read-out: IC50 (converted); for inhibition at 25 µg/mL: dose 25 μ/ml. A digest of the protocol: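 Porcine pancreatic PLA2 acting on 2 nM radiolabeled arachidonyl-phosphatidylcholine in mixed micelles (0.1 M Tris-HCl pH 9.0, 10 mM CaCl2, 10 mM Na taurocholate), 15 min at 37 °C with preincubation of drug and enzyme. Stopped with TCA; released 3H-arachidonate extracted, separated by TLC or column, counted by scintillation.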

Experiment [2] has as its target T1, porcine pancreatic PLA2. In words: HPLA2 assay: in vitro porcine pancreatic phospholipase A2, preincubation design, [s]=10 μm. As for the experimental part:
Phospholipase A2 activity was measured by a radiochemical assay in which labeled synthetic phosphatidylcholine substrate is converted by porcine pancreatic PLA2 to free radiolabeled arachidonate and lyso PC. Radiolabeled arachidonate is extracted from the reaction mixture and separated from unreacted substrate by column chromatography or TLC. Radioactivity (cpm) in samples is quantitated by liquid scintillation counting. Specific details are as follows:
Labeled substrate(1-stearyl-2-^3 H-arachidonylphosphatidylcholine; Amersham, sp. act. 84 (uCi/mmole, 0.025 to 0.2 uCi/assay tube and unlabeled substrates (Avanti), in sufficient quantity to give 20,000 cpm to 50,000 cpm and 10 μM to 1,000 μM final concentration/assay tube are dried under a stream of nitrogen. The PLA2 and mPLA2 assays utilized a […] substrate concentration. The mHPLA2 and HPLA2 assays (vida infra) utilized a 10 μM substrate concentration and the SmPLA2 assay utilized a substrate concentration ranging from 100 to 1000 μm. The substrate is then redissolved in 0.1M tris-HCl buffer, pH 9.0 containing 10 mM CaCl2 and 10 mM Na taurocholate detergent. The mixture is sonicated in a Kontes Sonifier to yield a homogeneous dispersion. The "mixed" micellar substrate is clear. An aliquot is reserved for a cpm count (total substrate). The total reaction volume is 500 μL; siliconized glassware or plasticware is used throughout. Enzyme (Sigma, sp. act.>690 U/mg protein and preferably 900 U/mg protein) is diluted 1:750 or 1:1000 in 0.1M tris-HCl buffer, pH 9.0 (without Ca^++ and detergent). Enzyme dilution depends on substrate concentration and required enzyme concentration.
The substrate in buffer is kept on ice until the reaction is started. The reaction is started by adding 10 μL of diluted enzyme solution to 490 μL of micellar substrate solution. Samples are incubated in a 37° C. water bath for 15 minutes with gentle mixing. The reaction is terminated by the addition of 100 μL of 1M fresh trichloroacetic acid (TCA) solution and chilling the tubes on ice for 30 minutes.
Samples (600 μL) are extracted with 3 ml CHCl3 /MeOH (2:1) for thin layer chromatography or in hexane/ether (9:1) for column chromatography. The phases are separated by gentle centrifugation at 700 rpm×5'. The organic phase is recovered.
Labeled arachidonate extracted with CHCl3 /MeOH is separated on silica gel G TLC plates (Analtech). Twenty μL of a 2 mg/ml internal standard solution of arachidonic acid (Sigma) is combined with 2-3 ml of the organic phase. The entire mixture is dried under nitrogen and redissolved in 50 μL of CHCl3 /MeOH (2:1). A 20 μL sample is counted in 10 ml of Beckman Redi-solv HP and spotted on silica gel G plates. […] Plates are developed in a glass chamber for 1-11/2 hours, air dried, and the spots visualized in an iodine vapor chamber. Standards of phosphatidylcholine, lyso PC, and arachidonic acid (Sigma) are made as 2 mg/ml stocks in CHCl3 /MeOH (2:1) and spotted on plates. Spots corresponding to arachidonate and phospholipid are scraped and counted in 10 ml Beckman Redi-Solv HP scintillation fluid.
Samples are extracted with hexane/ether and the upper organic phase recovered. An aliquot is applied to a Silicar CC4 (Malincrodt) column. Columns are prepared using 1 ml of a 1:1 slurry of silicar CC4 in hexane/ether in a Pasteur pipet (approx. 2 cm height). Columns are rinsed with 500 μL of hexane/ether before adding the sample (300-600 μL) to the column. Columns are eluted with a total of 6 ml of hexane/ether. The 6 ml sample is counted in 10 ml of Beckman Redi-Solv HP scintillation fluid.
or the phospholipase A2 assay, compounds are prepared as 1 mg/ml stock solutions in MeOH and diluted appropriately in PBS.

Experiment [3] addresses T1, porcine pancreatic PLA2. The experiment can be described thus: MHPLA2 assay: in vitro porcine pancreatic phospholipase A2, mixed micelle design, [s]=10 μm. The method in brief:
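Compounds dried with 10 μM 1-stearyl-2-[3H]-arachidonyl-PC substrate in mixed micelles (0.1M tris-HCl pH 9.0, 10 mM CaCl2, 10 mM Na taurocholate). Reaction started by adding enzyme and run 15 min at 37°C, then stopped with TCA. Released [3H]-arachidonate separated by TLC or column and counted by scintillation.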

Experiment [4] deals with T1, porcine pancreatic PLA2. In words: MPLA2 assay: in vitro porcine pancreatic phospholipase A2, mixed micelle design, substrate 2 nM. The conditions noted are these: for inhibition at 25 µg/mL: dose 25 μ/ml. The method in brief: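 Radiochemical PLA2 assay, mixed-micelle design: compound dried under N2 with 1-stearyl-2-[3H]-arachidonyl-PC substrate (2 nM) in 0.1M Tris-HCl pH 9.0, 10 mM CaCl2, 10 mM Na taurocholate. Reaction started with enzyme, 15 min at 37° C, stopped with TCA; released [3H]-arachidonate extracted, separated by TLC or column, counted by scintillation.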

Setting [5] is: dose 10 μ/ml, read-out: % Inh. Avg.
[6] abbreviates: dose 10 μ/ml, subs. con. 10, read-out: % Inh.
The mark [7] stands for this setting: dose 10 μ/ml, subs. con. 10, read-out: % Inh. Avg.
The mark [8] stands for this setting: dose 20 μ/ml, subs. con. 10, read-out: % Inh. Avg.
Setting [9] is: dose 50 μ/ml, subs. con. 10, read-out: % Inh. Avg.
The mark [10] stands for this setting: dose 25 μ/ml, subs. con. 10, read-out: % Inh.

The structures appear in SMILES notation. Where a name gives a salt, the structure may show the parent alone. Read-outs that look alike come from different tables or passages of the source.

T1 sequence (P00592 23-146): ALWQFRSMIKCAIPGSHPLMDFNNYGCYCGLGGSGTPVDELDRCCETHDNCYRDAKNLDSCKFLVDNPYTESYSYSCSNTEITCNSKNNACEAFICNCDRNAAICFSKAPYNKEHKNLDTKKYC

In the case of `CCCCCCCCCCCCCCCCOCC(COP(=O)([O-])OCC[N+](C)(C)C)C[S+]([O-])CCCCCCCCCCCCCCCC` (stereo not shown) [7-[(Hexadecylsulfinyl)methyl]-4-hydroxy-N,N,N-trimethyl-3,5,9-trioxa-4-phosphapentacosan-1-aminium, hydroxide, inner salt, 4-oxide], the “% Inh.” value on porcine pancreatic PLA2 [1] (dose 10 μ/ml) is recorded as 88%. Also, the inhibition at 10 µg/mL at porcine pancreatic PLA2 [1] (setting [5]) came to 66%; at porcine pancreatic PLA2 [2] (setting [6]), 27%; on porcine pancreatic PLA2 [2] (setting [7]) it was 22%; at porcine pancreatic PLA2 [3] (setting [6]) it was 3%; at porcine pancreatic PLA2 [4] (dose 10 μ/ml, subs. con. 2, read-out: % Inh.), 71%. For the same compound, the inhibition at 20 µg/mL at porcine pancreatic PLA2 [1] (dose 20 μ/ml, read-out: % Inh.) came out at 93%; at porcine pancreatic PLA2 [2] (dose 20 μ/ml, subs. con. 10, read-out: % Inh.), 33%; on porcine pancreatic PLA2 [2] (setting [8]) it was 33%; against porcine pancreatic PLA2 [3] (dose 20 μ/ml, subs. con. 10), 22%; on porcine pancreatic PLA2 [4] (dose 20 μ/ml, subs. con. 2, read-out: % Inh.), 84%. The IC50 on porcine pancreatic PLA2 [1] is 1860 nM; at porcine pancreatic PLA2 [4] (subs. con. 2) it was 3860 nM. The inhibition at 50 µg/mL at porcine pancreatic PLA2 [2] (dose 50 μ/ml, subs. con. 10, read-out: % Inh.) turned out to be 36%; on porcine pancreatic PLA2 [2] (setting [9]) it was 42%. The inhibition at 25 µg/mL was determined as 68% on porcine pancreatic PLA2 [3] (setting [10]) and 98% at porcine pancreatic PLA2 [4] (subs. con. 2, read-out: % Inh.).
For `CCCCCCCCCCCCCCCCOC[C@@H](COP(=O)([O-])OCC[N+](C)(C)C)OP(=O)(OC)OCCCCCCCCCCCCCCCC` (single isomer, unassigned) [3,5,8,10-Tetraoxa-4,9-diphosphahexacosan-1-aminium, 7-[(hexa], the “% Inh. Avg.” value is given as 25% at porcine pancreatic PLA2 [1] (dose 10 μ/ml); 39% on porcine pancreatic PLA2 [1] (dose 20 μ/ml); 18% on porcine pancreatic PLA2 [2] (dose 10 μ/ml, subs. con. 10); 12% at porcine pancreatic PLA2 [2] (dose 20 μ/ml, subs. con. 10); 25% on porcine pancreatic PLA2 [2] (dose 50 μ/ml, subs. con. 10). At porcine pancreatic PLA2 [3] (dose 25 μ/ml, subs. con. 10), the “% Inh.” value came out at 9%.
For `CCCCCCCCCCCCCCCCOC[C@@H](COP(=O)([O-])OCC[N+](C)(C)C)OP(=O)(OC)OCCCCCCCCCCCCCCCC` (single isomer, unassigned), the figures for the inhibition at 10 µg/mL on porcine pancreatic PLA2 [1] (setting [5]) and on porcine pancreatic PLA2 [2] (setting [7]) were 29% and 22%, respectively. Also, the inhibition at 20 µg/mL on porcine pancreatic PLA2 [1] (dose 20 μ/ml, read-out: % Inh. Avg.) is 26%; at porcine pancreatic PLA2 [2] (setting [8]), 18%. Also, at porcine pancreatic PLA2 [2] (setting [9]), the inhibition at 50 µg/mL was 23%.
For `CCCCCCCCCCCCCCCCOC[C@H](COP(=O)([O-])OCC[N+](C)(C)C)OP(=O)(OC)OCCCCCCCCCCCCCCCC` (single isomer, unassigned), the inhibition at 25 µg/mL turned out to be 93% at porcine pancreatic PLA2 [1] (read-out: % Inh.); 7% on porcine pancreatic PLA2 [3] (setting [10]); 93% on porcine pancreatic PLA2 [4] (subs. con. 2, read-out: % Inh.). Also, the IC50 at porcine pancreatic PLA2 [1] is 2500 nM. Further, the inhibition at 10 µg/mL on porcine pancreatic PLA2 [2] (setting [7]) came out at 17%. The inhibition at 20 µg/mL at porcine pancreatic PLA2 [2] (setting [8]) is 21%. Also, the inhibition at 50 µg/mL at porcine pancreatic PLA2 [2] (setting [9]) is 30%.
As to `CCCCCCCCCCCCCCCCOCC(COP(=O)([O-])OCC[N+](C)(C)C)OP(=O)(O)OCCCCCCCCCCCCCCCC` (single isomer, unassigned; more polar) [3,5,8,10-Tetraoxa-4,9-diphosphahexacosan-1-aminium, 7-[(hexadecyloxy)methyl]-4,9-dihydroxy-N,N,N-trimethylhydroxide, 4-(inner salt), 4,9-dioxide, more polar isomer], the inhibition at 10 µg/mL on porcine pancreatic PLA2 [1] (setting [5]) worked out at 27%; on porcine pancreatic PLA2 [2] (setting [7]), 18%. For the same compound, the inhibition at 25 µg/mL is 91% on porcine pancreatic PLA2 [1] (read-out: % Inh.) and 1% at porcine pancreatic PLA2 [3] (setting [10]). At porcine pancreatic PLA2 [1], the half-maximal inhibitory concentration (IC50) is 3180 nM. For the same compound, the inhibition at 20 µg/mL at porcine pancreatic PLA2 [2] (setting [8]) came to 22%. Further, the inhibition at 50 µg/mL on porcine pancreatic PLA2 [2] (setting [9]) was found to be 32%.
For the compound `CCCCCCCCCCCCCCCCOCC(COP(=O)([O-])OCC[N+](C)(C)C)OP(=O)(O)OCCCCCCCCCCCCCCCC` (stereo not shown) [3,5,8,10-Tetraoxa-4,9-diphosphahexacosan-1-aminium, 7-[(hexa] [3,5,8,10-Tetraoxa-4,9-diphosphahexacosan-1-aminium, 7-[(hexadecyloxy)methyl]-4,9-dihydroxy-N,N,N-trimethyl-hydroxide, 4-(inner salt), 4,9-dioxide], on porcine pancreatic PLA2 [2] (dose 10 μ/ml, subs. con. 10), the “% Inh.” value is given as “STIM”.
